Test results from US11478459B2, “Pharmaceutical preparation” (Merck Patent GmbH, priority 2017, dated 2022).
≈ marks a conversion by molar mass, not a printed value. Where two headings read alike, the source gives them in different places.

Assay: Solubility of the Compound in water, biorelevant media (FaSSIF, FeSSIF) and oils
Format: physicochemical

| DCS classification (Butler and Dressman, 2010) | solubility (FaSSIF, read-out: solubility in Fasted Simulated Intestinal Fluid (FaSSIF)) [µg/mL] | solubility (FeSSIF, read-out: solubility in FedState Simulated Intestinal Fluid (FeSSIF)) [µg/mL] | dose/solubility ratio (estimated efficacious human dose of >100 mg) | solubility in the tested oils (in words) | solubility in water and biorelevant media (in words) | solubility (FaSSIF, as restated in Example 5, read-out: solubility of the Compound in FaSSIF) [µg/mL] | SMILES |
| --- | --- | --- | --- | --- | --- | --- | --- |
| DCS IIb | 0.25 (≈ 0.584 µM) | 1 (≈ 2.33 µM) | at least 100,000 | low solubility | very low solubility | – | COc1cc2ncc3c(c2cc1-c1cnn(C)c1)n(-c1ccc(C#N)cc1F)c(=O)n3C [3-Fluoro-4-[7-methoxy-3-methyl-8-(1-methyl-1H-pyrazol-4-yl)-2-oxo-2,3-dihydro-imidazo[4,5-c]quinolin-1-yl]-benzonitrile] |
| – | – | – | – | – | – | ~0.25 (≈ 0.584 µM) | COc1cc2ncc3c(c2cc1-c1cnn(C)c1)n(-c1ccc(C#N)cc1F)c(=O)n3C [Compound, 3-Fluoro-4-[7-methoxy-3-methyl-8-(1-methyl-1H-pyrazol-4-yl)-2-oxo-2,3-dihydro-imidazo[4,5-c]quinolin-1-yl]-benzonitrile] |
